Measured values published in US9018392B1, “Compounds, compositions and methods for crop enhancement” (Active AgriProducts Inc., priority 2014, dated 2015).

Tests used:
Assay type in all cases: in vivo
wheat [1] = assay: Experiment 1 wheat seed germination, laboratory conditions, seedling trays; conditions: 20 ppm and 40 ppm seed treatment
Experimental: (§1) For the Experiments described below, application of 1,2-dimethyl-4-dimethylaminomethyl-5-hydroxy benzimidazole (referred to herein as INTRINSIC™) was by way of seed treatment. Treated seeds were prepared by mixing 1.0 kg of seed and 2.0 mL of an aqueous solution of INTRINSIC™ comprising 0.1% potassium hydroxide in a ZIPLOC™ bag. Control seeds were prepared by mixing 1.0 kg of seed and 2.0 mL of aqueous 0.1% potassium hydroxide solution in a ZIPLOC™ bag. The seeds and solutions were sufficiently mixed to wet the seeds. The seeds were dried after being wetted. […] Experiment 1 tested the effects of 20 ppm and 40 ppm INTRINSIC™ on wheat seed germination under laboratory conditions. Treated and control seeds were grown in seedling trays lined with moistened tissue.

wheat [2] = assay: Experiment 2(a) wheat root growth, laboratory conditions, seedling trays; conditions: 20 ppm and 40 ppm seed treatment; 72 hours; FIG. 2(a)
Experimental: as §1, with “Experiment 2(a)” for “Experiment 1”, “wheat root growth” for “wheat seed germination”, “tissue. Experiment 2(b) tested the effects of 40 ppm INTRINSIC™ on wheat root growth under greenhouse conditions. Experiment 2(c) tested the effects of 40 ppm INTRINSIC™ on wheat root growth under laboratory conditions. Treated and control seeds were grown in agar culture medium. Results at 8 days are shown Figure in FIG. 2(c).” for “tissue.”

wheat [3] = assay: Experiment 2(b) wheat root growth, greenhouse conditions; conditions: 40 ppm seed treatment, 10 days, FIG. 2(b)
Experimental: as §1, with “Experiment 2(a)” for “Experiment 1”, “wheat root growth” for “wheat seed germination”, “tissue. Experiment 2(b) tested the effects of 40 ppm INTRINSIC™ on wheat root growth under greenhouse conditions. Experiment 2(c) tested the effects of 40 ppm INTRINSIC™ on wheat root growth under laboratory conditions. Treated and control seeds were grown in agar culture medium. Results at 8 days are shown Figure in FIG. 2(c).” for “tissue.”

wheat [4] = assay: Experiment 2(c) wheat root growth, laboratory conditions, agar culture medium; conditions: 40 ppm seed treatment, 8 days, FIG. 2(c)
Experimental: as §1, with “Experiment 2(a)” for “Experiment 1”, “wheat root growth under laboratory conditions. […] Experiment 2(b) tested the effects of 40 ppm INTRINSIC™ on wheat root growth under greenhouse conditions. Experiment 2(c) tested the effects of 40 ppm INTRINSIC™ on wheat root growth” for “wheat seed germination”, “in agar culture medium. Results at 8 days are shown Figure in FIG. 2(c).” for “in seedling trays lined with moistened tissue.”

canola [5] = assay: Experiment 3 canola root growth, greenhouse conditions; conditions: 40 ppm seed treatment; 10 days
Experimental: as §1, with “Experiment 3” for “Experiment 1”, “of” for “of 20 ppm and”, “on canola root growth” for “on wheat seed germination”, “under greenhouse” for “under laboratory”, “conditions.” for “conditions. Treated and control seeds were grown in seedling trays lined with moistened tissue.”

soy bean [6] = assay: Experiment 4 soy bean root growth, greenhouse conditions; conditions: 40 ppm seed treatment; 10 days
Experimental: as §1, with “Experiment 4” for “Experiment 1”, “of” for “of 20 ppm and”, “on soy bean root growth” for “on wheat seed germination”, “under greenhouse” for “under laboratory”, “conditions.” for “conditions. Treated and control seeds were grown in seedling trays lined with moistened tissue.”

corn = assay: Experiment 5 corn root growth, greenhouse conditions; conditions: 40 ppm seed treatment; 10 days
Experimental: as §1, with “Experiment 5” for “Experiment 1”, “of” for “of 20 ppm and”, “on corn root growth” for “on wheat seed germination”, “under greenhouse” for “under laboratory”, “conditions.” for “conditions. Treated and control seeds were grown in seedling trays lined with moistened tissue.”

wheat [7] = assay: Experiment 6 wheat growth, field test conditions; conditions: 20 ppm and 40 ppm, alone and combined with CRUISER MAXX™ and DIVIDEND™, 10 days
Experimental: For the Experiments described below, application of 1,2-dimethyl-4-dimethylaminomethyl-5-hydroxy benzimidazole (referred to herein as INTRINSICTM) was by way of seed treatment. Treated seeds were prepared by mixing 1.0 kg of seed and 2.0 mL of an aqueous solution of INTRINSICTM comprising 0.1% potassium hydroxide in a ZIPLOCTM bag. Control seeds were prepared by mixing 1.0 kg of seed and 2.0 mL of aqueous 0.1% potassium hydroxide solution in a ZIPLOCTM bag. The seeds and solutions were sufficiently mixed to wet the seeds. The seeds were dried after being wetted. […] Experiment 6 tested the effects of 20 ppm and 40 ppm INTRINSICTM, alone and combined with known seed treatments (CRUISER […] and […], from SyngentaTM Canada Inc., applied per manufacturer's recommendations), on wheat growth under field test conditions.

canola [8] = assay: Experiment 7 canola growth, field test conditions, first site; conditions: 20 ppm and 40 ppm seed treatment, 10 days
Experimental: (§2) For the Experiments described below, application of 1,2-dimethyl-4-dimethylaminomethyl-5-hydroxy benzimidazole (referred to herein as INTRINSIC™) was by way of seed treatment. Treated seeds were prepared by mixing 1.0 kg of seed and 2.0 mL of an aqueous solution of INTRINSIC™ comprising 0.1% potassium hydroxide in a ZIPLOC™ bag. Control seeds were prepared by mixing 1.0 kg of seed and 2.0 mL of aqueous 0.1% potassium hydroxide solution in a ZIPLOC™ bag. The seeds and solutions were sufficiently mixed to wet the seeds. The seeds were dried after being wetted. […] Experiments 7 and 8 tested the effects of 20 ppm and 40 ppm INTRINSIC™, on canola growth under field test conditions.

canola [9] = assay: Experiment 8 canola growth, field test conditions, second site; conditions: 10 days
Experimental: as §2

wheat [10] = assay: Experiment 9 wheat yield, field test conditions; conditions: crop maturation (approximately 90 days)
Experimental: For the Experiments described below, application of 1,2-dimethyl-4-dimethylaminomethyl-5-hydroxy benzimidazole (referred to herein as INTRINSICTM) was by way of seed treatment. Treated seeds were prepared by mixing 1.0 kg of seed and 2.0 mL of an aqueous solution of INTRINSICTM comprising 0.1% potassium hydroxide in a ZIPLOCTM bag. Control seeds were prepared by mixing 1.0 kg of seed and 2.0 mL of aqueous 0.1% potassium hydroxide solution in a ZIPLOCTM bag. The seeds and solutions were sufficiently mixed to wet the seeds. The seeds were dried after being wetted. […] Experiment 9 tested the effects of 40 ppm INTRINSICTM, CRUISER […], and the combination of the two, on wheat yield under field test conditions. CRUISER […] was applied per the manufacturer's recommendations. FIGS. 9(a) and 9(b) display yield results at crop maturation (approximately 90 days), showing greater yield crops from INTRINSICTM-treated seeds (whether alone or in combination with CRUISER […]) compared to crops from control seeds.

canola [11] = assay: Experiment 10 canola yield, field test conditions, first site; conditions: 20 ppm and 40 ppm seed treatment, crop maturation (approximately 90 days)
Experimental: as §2, with “10” for “7”, “11” for “8”, “INTRINSIC™” for “INTRINSIC™,”, “yield” for “growth”, “conditions. FIGS. 10(a) and 10(b) display yield results at crop maturation (approximately 90 days) at a first site, showing greater yield crops from treated seeds compared to crops from control seeds. FIGS. 11(a) and 11(b) display yield results at crop maturation (approximately 90 days) at a second site, again showing greater yield crops from treated seeds compared to crops from control seeds.” for “conditions.”

canola [12] = assay: Experiment 11 canola yield, field test conditions, second site; conditions: 20 ppm and 40 ppm seed treatment, crop maturation (approximately 90 days)
Experimental: as §2, with “10” for “7”, “11” for “8”, “INTRINSIC™” for “INTRINSIC™,”, “yield” for “growth”, “conditions. FIGS. 10(a) and 10(b) display yield results at crop maturation (approximately 90 days) at a first site, showing greater yield crops from treated seeds compared to crops from control seeds. FIGS. 11(a) and 11(b) display yield results at crop maturation (approximately 90 days) at a second site, again showing greater yield crops from treated seeds compared to crops from control seeds.” for “conditions.”

soy bean [13] = assay: Experiment 12 soy bean yield, field test conditions; conditions: 20 ppm and 40 ppm seed treatment; crop maturation (approximately 90 days)
Experimental: For the Experiments described below, application of 1,2-dimethyl-4-dimethylaminomethyl-5-hydroxy benzimidazole (referred to herein as INTRINSIC™) was by way of seed treatment. Treated seeds were prepared by mixing 1.0 kg of seed and 2.0 mL of an aqueous solution of INTRINSIC™ comprising 0.1% potassium hydroxide in a ZIPLOC™ bag. Control seeds were prepared by mixing 1.0 kg of seed and 2.0 mL of aqueous 0.1% potassium hydroxide solution in a ZIPLOC™ bag. The seeds and solutions were sufficiently mixed to wet the seeds. The seeds were dried after being wetted. […] Experiment 12 tested the effects of 20 ppm and 40 ppm INTRINSIC™ on soy bean yield under field test conditions. FIGS. 12(a) and 12(b) display yield results at crop maturation (approximately 90 days), showing greater yield crops from treated seeds compared to crops from control seeds.

[14] = 20 ppm and 40 ppm seed treatment
[15] = 40 ppm seed treatment, another set of tests

Cc1nc2c(CN(C)C)c(O)ccc2n1C [INTRINSIC™, 1,2-dimethyl-4-dimethylaminomethyl-5-hydroxy benzimidazole]
number of wheat seeds broken open compared to control (wheat [1]; 24 hours): greater number | number of roots compared to control seedlings (wheat [1]; 48 h, 72 h and 96 h): greater number of roots | root length compared to control seedlings (wheat [1]; 48 h, 72 h and 96 h): longer roots | shoot length compared to control seedlings (wheat [1]; 48 h, 72 h and 96 h): longer shoots | number of roots compared to control seedlings (wheat [2]): greater number of roots | root length compared to control seedlings (wheat [2]): longer roots | shoot length compared to control seedlings (wheat [2]): longer shoots | number of roots compared to control seedlings (wheat [3]): greater number of roots | root length compared to control seedlings (wheat [3]): longer roots | shoot length compared to control seedlings (wheat [3]): longer shoots | number of roots compared to control seedlings (wheat [4]): greater number of roots | root length compared to control seedlings (wheat [4]): longer roots | shoot length compared to control seedlings (wheat [4]): longer shoots | foliage size compared to control seedlings (canola [5]): larger foliage | number of roots compared to control seedlings (canola [5]): greater number of roots | root length compared to control seedlings (canola [5]): longer roots | foliage size compared to control seedlings (soy bean [6]): larger foliage | number of roots compared to control seedlings (soy bean [6]): greater number of roots | foliage size compared to control seedlings (corn): larger foliage | number of roots compared to control seedlings (corn): greater number of roots | root length compared to control seedlings (wheat [7]): significant increases | root surface area compared to control seedlings (wheat [7]): significant increases | root weight compared to control seedlings (wheat [7]; another set of tests): significant increases | shoot weight compared to control seedlings (wheat [7]; another set of tests): significant increases | root length compared to control seedlings (canola [8]): significant increases | root surface area compared to control seedlings (canola [8]): significant increases | root weight compared to control seedlings (canola [8]; another set of tests): significant increases | shoot weight compared to control seedlings (canola [8]; another set of tests): significant increases | root length compared to control seedlings (canola [9]; [14]): significant increases | root surface area compared to control seedlings (canola [9]; [14]): significant increases | root weight compared to control seedlings (canola [9]; [15]): significant increases | shoot weight compared to control seedlings (canola [9]; [15]): significant increases | wheat yield compared to crops from control seeds (wheat [10]; 40 ppm seed treatment alone): greater yield | wheat yield compared to crops from control seeds (wheat [10]; 40 ppm seed treatment in combination with CRUISER MAXX™): greater yield | canola yield compared to crops from control seeds (canola [11]): greater yield | canola yield compared to crops from control seeds (canola [12]): greater yield | soy bean yield compared to crops from control seeds (soy bean [13]): greater yield
